{"source": "patent US10472391B2", "about": "(priority 2013, dated 2019)", "key": {"[1]": {"system": "Hla-mediated cytotoxicity", "details": "cited from earlier work"}, "[2]": {"target": "T1, ADAM10 (Homo sapiens, UniProt O14672)", "T1 sequence (O14672 214-748)": "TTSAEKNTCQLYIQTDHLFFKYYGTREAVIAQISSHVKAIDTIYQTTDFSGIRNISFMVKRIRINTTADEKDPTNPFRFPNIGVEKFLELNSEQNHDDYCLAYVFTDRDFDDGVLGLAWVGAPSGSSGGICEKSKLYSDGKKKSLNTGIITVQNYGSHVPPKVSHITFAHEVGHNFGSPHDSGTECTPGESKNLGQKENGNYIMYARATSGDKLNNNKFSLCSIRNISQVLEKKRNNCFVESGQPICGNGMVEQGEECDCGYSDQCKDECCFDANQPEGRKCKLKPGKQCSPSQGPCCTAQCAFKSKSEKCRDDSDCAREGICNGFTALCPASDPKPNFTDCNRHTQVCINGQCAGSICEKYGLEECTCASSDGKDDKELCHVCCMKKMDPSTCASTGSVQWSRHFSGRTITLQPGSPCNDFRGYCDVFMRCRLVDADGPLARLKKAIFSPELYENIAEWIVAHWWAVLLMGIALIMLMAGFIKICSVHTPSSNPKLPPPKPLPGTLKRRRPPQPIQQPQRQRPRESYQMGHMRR", "experiment": "IC50 of GI254023X (assay not given)"}, "[3]": {"system": "A549 cells", "type": "cell-based"}}}
{"smiles": "CNC(=O)[C@@H](NC(=O)[C@H](CCCc1ccccc1)[C@H](C)N(O)C=O)C(C)(C)C", "note": "[GI254023X, (R)—N—((S)-3,3-dimethyl-1-(methylamino)-1-oxobutan-2-yl)-2-((S)-1-(N-hydroxyformamido)-ethyl)-5-phenylpentanamide]", "values": [{"measurement": "effect on Hla-mediated cytotoxicity", "setting": "[1]", "value": "prevents Hla-mediated cytotoxicity"}, {"measurement": "IC50", "setting": "[2]", "value": "~5", "unit": "µM"}, {"measurement": "inhibition of binding of radiolabelled Hla to A549 cells", "setting": "[3]", "value": "inhibition of binding of radiolabelled Hla to A549 cells"}]}
